Results: the supplement of paper PMC10307832

Legend:
Test in all cases: relative viability (nuclei count vs DMSO), 5 days (fraction); higher = more cells survive
Kobe2602 + Decitabine = compound: C1=CC(=CC=C1NC(=S)NNC2=C(C=C(C=C2[N+](=O)[O-])C(F)(F)F)[N+](=O)[O-])F [Kobe2602] + Nc1ncn([C@H]2C[C@H](O)[C@@H](CO)O2)c(=O)n1 [Decitabine] (partner 2 µM)
In short: (§1)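 Relative viability divides the nuclei count in treated wells by that in vehicle wells. Lung cancer cell lines were seeded in 1536-well plates, dosed by pin tool the next day, and fixed and stained after 5 days in one step with final 0.05% Triton X-100, 1% formaldehyde and 1 ug/ml Hoechst. Dosing was a single drug or a fixed anchor-drug dose plus five library-drug doses (not always all listed) in √10 steps, and values are medians of duplicate plates imaged at 4×.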

Kobe2602 + Crizotinib = compound: C1=CC(=CC=C1NC(=S)NNC2=C(C=C(C=C2[N+](=O)[O-])C(F)(F)F)[N+](=O)[O-])F [Kobe2602] + C[C@@H](Oc1cc(-c2cnn(C3CCNCC3)c2)cnc1N)c1c(Cl)ccc(F)c1Cl [Crizotinib] (partner 1 µM)
In short: as §1

Kobe2602 + Linsitinib = compound: C1=CC(=CC=C1NC(=S)NNC2=C(C=C(C=C2[N+](=O)[O-])C(F)(F)F)[N+](=O)[O-])F [Kobe2602] + C[C@]1(O)C[C@@H](c2nc(-c3ccc4ccc(-c5ccccc5)nc4c3)c3c(N)nccn32)C1 [Linsitinib] (partner 1 µM)
In short: as §1

Zosuquidar + Bortezomib = compound: O[C@@H](COc1cccc2ncccc12)CN1CCN([C@@H]2c3ccccc3[C@@H]3[C@H](c4ccccc42)C3(F)F)CC1 [Zosuquidar] + CC(C)C[C@H](NC(=O)[C@H](Cc1ccccc1)NC(=O)c1cnccn1)B(O)O [Bortezomib] (partner 0.002 µM)
In short: as §1

Cell Line | relative viability (Kobe2602 + Decitabine; first compound 0.2 µM) | relative viability (Kobe2602 + Decitabine; first compound 0.6325 µM) | relative viability (Kobe2602 + Decitabine; first compound 2 µM) | relative viability (Kobe2602 + Decitabine; first compound 6.325 µM) | relative viability (Kobe2602 + Decitabine; first compound 20 µM) | relative viability (Kobe2602 + Crizotinib; first compound 0.2 µM) | relative viability (Kobe2602 + Crizotinib; first compound 0.6325 µM) | relative viability (Kobe2602 + Crizotinib; first compound 2 µM) | relative viability (Kobe2602 + Crizotinib; first compound 6.325 µM) | relative viability (Kobe2602 + Crizotinib; first compound 20 µM) | relative viability (Kobe2602 + Linsitinib; first compound 0.2 µM) | relative viability (Kobe2602 + Linsitinib; first compound 0.6325 µM) | relative viability (Kobe2602 + Linsitinib; first compound 2 µM) | relative viability (Kobe2602 + Linsitinib; first compound 6.325 µM) | relative viability (Kobe2602 + Linsitinib; first compound 20 µM) | relative viability (Zosuquidar + Bortezomib; first compound 0.01 µM) | relative viability (Zosuquidar + Bortezomib; first compound 0.03162 µM) | relative viability (Zosuquidar + Bortezomib; first compound 0.1 µM) | relative viability (Zosuquidar + Bortezomib; first compound 0.3162 µM) | relative viability (Zosuquidar + Bortezomib; first compound 1 µM)
NCI-H522 | 0.693 | 0.654 | 0.649 | 0.642 | 0.756 |  |  |  |  |  |  |  |  |  |  |  |  |  |  | 
NCI-H1299 |  |  |  |  |  | 0.922 | 0.938 | 0.93 | 0.952 | 0.925 | 0.887 | 0.979 | 0.961 | 1.03 | 0.945 | 1.01 | 1.01 | 0.997 | 0.962 | 1.03
NCI-H1395 | 0.764 | 0.752 | 0.712 | 0.687 | 0.68 |  |  |  |  |  | 0.992 | 1 | 1.04 | 1.05 | 1.12 |  |  |  |  | 
NCI-H1563 |  |  |  |  |  | 0.844 | 0.885 | 0.749 | 0.939 | 0.85 | 1.1 | 1.39 | 1.08 | 1.14 | 1.34 | 0.842 | 0.882 | 0.807 | 1.04 | 0.858
NCI-H1648 | 0.657 | 0.489 | 0.402 | 0.533 | 0.509 |  |  |  |  |  |  |  |  |  |  |  |  |  |  | 
NCI-H1650 | 0.42 | 0.473 | 0.381 | 0.338 | 0.366 | 0.913 | 1.01 | 0.92 | 1.07 | 1.05 |  |  |  |  |  | 0.227 | 0.226 | 0.206 | 0.219 | 0.222
NCI-H1703 |  |  |  |  |  | 0.775 | 0.66 | 0.56 | 0.829 | 0.501 | 0.609 | 0.99 | 0.499 | 0.749 | 0.377 | 0.441 | 0.329 | 0.371 | 0.397 | 0.567
NCI-H1793 | 0.482 | 0.485 | 0.656 | 0.664 | 0.472 |  |  |  |  |  | 0.856 | 0.883 | 0.806 | 0.831 | 0.958 |  |  |  |  | 
NCI-H1944 | 0.502 | 0.452 | 0.46 | 0.439 | 0.48 | 1.01 | 1.19 | 1.14 | 1.09 | 1.14 | 1.22 | 1.26 | 1.28 | 1.17 | 1.29 |  |  |  |  | 
NCI-H2170 | 0.492 | 0.455 | 0.481 | 0.449 | 0.478 | 1.22 | 1.21 | 1.14 | 1.31 | 1.13 |  |  |  |  |  |  |  |  |  | 
NCI-H2228 |  |  |  |  |  | 0.484 | 0.504 | 0.441 | 0.494 | 0.585 | 0.576 | 0.733 | 0.809 | 0.756 | 0.598 | 1.06 | 1.02 | 0.634 | 1.14 | 1.17
NCI-H2342 | 0.846 | 0.749 | 0.68 | 0.658 | 0.728 |  |  |  |  |  |  |  |  |  |  |  |  |  |  | 
SK-MES-1 | 0.411 | 0.378 | 0.335 | 0.396 | 0.321 | 0.966 | 0.964 | 0.954 | 1.04 | 1 | 1 | 1.26 | 1.04 | 1.07 | 1.07 |  |  |  |  | 
SW 900 | 0.559 | 0.454 | 0.411 | 0.452 | 0.387 |  |  |  |  |  |  |  |  |  |  |  |  |  |  | 
